From article PMC9501232, “Novel 4-Azapregnene Derivatives as Potential Anticancer Agents: Synthesis, Antiproliferative Activity and Molecular Docking Studies” (Molecules, 2022)

Tests used:
Type in all cases: cell-based, human
T47-D cells [1] = assay: Fluorescence microscopy, PI/Hoechst 3342 staining; conditions: 20 µM, 24, 48 and 72 h, vs negative and positive controls
Experimental: To access the effects of the compound 3g in T47-D cells, fluorescence microscopy assays with Hoechst 3342 and PI staining were performed. T47-D cells were seeded at 2 × 10^4 cells/mL in a 24-well culture plate containing circular coverslips of 10 mm diameter, in a complete culture medium. After 48 h, cells were incubated during 24, 48 and 72 h, with 5-FU at 20 µM, as the positive control, steroid 3g at 20 µM, and untreated cells were used as a negative control. Then, cells were incubated with 20 µL/per well of a solution of PI in PBS at 1 mg/mL for 25 min at 37 °C. The medium was removed, and the cells were fixed with formalin 4% for 15 min at room temperature. Cells were washed three times with PBS and then they were incubated with 30 µL/per coverslip of Hoechst 33,342 (1:500) for 10 min. After incubation, cells were washed three times with PBS. Coverslips were mounted on a drop of permanent mounting medium (Dako) on a microscope slide and visualized in a Zeiss Axio Imager A1 microscope with the 40 × objective. The PI/Hoechst 3342 ratio was calculated by dividing PI-positive cells by Hoechst 3342-positive cells and, then the values were normalized.

[2] = test system: caspase-9 activity in T47-D cells; assay: Caspase-Glo 9 caspase-9 activity assay; conditions: 48 h, DOX 10 µM, 3g 10 and 20 µM, relative to untreated cells
Experimental: Promega Caspase-Glo 9 assay (Promega, Madison, WI, USA) was employed to evaluate the caspase-9 activity. T47-D cells were seeded in a 96 multiwell plate at a density of 4 × 10^4 cells/mL. After 48 h, cells were treated with the positive control, DOX, at 10 μM and with 10 and 20 μM of 3g, during 48 h. The assay was performed at the end of treatment, following the instructions provided by the manufacturer. Data are representative of at least two experiments (n = 4 in each).

LNCaP cells = assay: Microscopic cell morphology observation; conditions: 24 and 72 h of treatment
Experimental: In our previous work, 16E-arylidene-4-azaandrost-5-ene derivatives were synthesized, their antiproliferative effects were evaluated and further studies were performed with the most promising steroid in LNCaP cells. Due to the similarity of 16E-arylidene-4-azaandrostenes and these novel 21E-arylidene-4-azapregnene derivatives, identical studies in this cell line were performed, namely a flow cytometry assay and microscopic cell morphology observation. To assess the viability of LNCaP cells when exposed to steroid 3g, a flow cytometry assay after PI staining was performed. Cells were treated with 3g and 5-FU during 24 and 72 h, and then a microscopic cell observation was performed to assess the possible morphological alterations and cell density changes triggered by incubation with 3g and compare with controls (Figure 6).
Similar to the previous study, the analysis of cell viability was accomplished by flow cytometry after staining dead cells with propidium iodide (PI; Invitrogen, Carlsbad, USA). Succinctly, 1 mL of a cell suspension was seeded in 12-well culture plates (initial cell density of 5 × 10^4 cells/mL of LNCaP cells for 24 h assay and 2 × 10^4 cells/mL of the same cell line for 72 h assay) in a complete culture medium. […] The percentages of each region were calculated for a total of R1 + R2 + R3. […]

T47-D cells [3] = assay: Cell nuclear morphology and distribution analysis with ImageJ
Description: The nuclear measurements were achieved by converting 16-bit photomicrographs of Hoechst 3342-stained nuclei, in different conditions, into 8-bit images and then these images were autothresholded to binary photos using the default method “Make binary” function of ImageJ v 1.49. Cell nuclei that are touching were separated and fragments were discarded based on the area through the “Analyze Particle” function. This function also provides several information pretended as nuclear area, circumference and form factor [33]. In addition, the “Nearest Neighbor Distance” was determined. This function allows measuring the distance between each cell nucleus and the nearest ones.

Compound: C[C@]12CC[C@H]3[C@@H](CC=C4NC(=O)CC[C@@]43C)[C@@H]1CC[C@@H]2C(=O)/C=C/c1cccnc1 [Compound 3g, 21E-[(Pyridin-3-yl)methylidene]-4-azapregn-5-ene-3,20-dione]
- Ratio of PI/Hoechst 3342 staining (T47-D cells [1]): higher ratio of PI/Hoechst 3342 staining
- Caspase-9 activity [2]: significant elevation in caspase-9 activity
- Cell morphology and cell density (LNCaP cells): detached, forming clusters and presenting a round form
- Nuclear area (T47-D cells [3]; 20 µM, 24, 48 and 72 h, vs control): significant decrease in the nuclear area
- Nearest neighbor distance (NND) of cell nuclei (T47-D cells [3]; 20 µM, 48 and 72 h): different distances
